In patent US20130196937A1, “AGE PRODUCTION INHIBITOR” (ORYZA OIL & FAT CHEMICAL CO., LTD., priority 2010, published 2013):
Read-outs that look alike come from different tables or passages of the source. Marks after values point to notes of the source that are not given here.

Key:
AGE production = test: Test 1: AGE production inhibition (D-glucose + bovine serum albumin, fluorescence); type: biochemical
Protocol: Put the sample solution ([…]) of the concentration of cherry-blossom extract (Example 1) and cherry-leaf extract (Example 2), as shown in the chart, below, into a phosphate buffer solution (pH: […]) containing D-glucose (10%) and into bovine serum albumin (fraction 5.1%) and leave it out at a temperature of 60 degrees centigrade for two days. Dilute the reaction solution with distilled water until the intensity of fluorescent light reaches about 500, thus determining its intensity (measurement wavelength: […]). Also, the extract is to be diluted with distilled water, and the substance, after being dissolved in DMSO (dimethyl sulphoxide), is to be diluted with a phosphate buffer solution until DMSO concentration is of 1%. Each value in Chart 1 indicates an average value with standard error of the three examples. Asterisks (*, **) mean a significant difference (i.e. *: p<0.05; **: p<0.01) between the processed samples and the unprocessed samples as determined by Dunnett's Multiple Comparison Test.

[1] = system: normal diploid fibroblast (PDL22-32 cells); test: Test 2-2: fibroblast apoptosis caused by CML-collagen (Caspase Assay), extracts and substances; type: cell-based, human
Protocol: 50 mg of 1 mM HCL was added to 25 mL of bovine skin-derived collagen and dissolved for two hours incubation at the temperature of 37 degrees centigrade, and was shaken as needed. Then, PBS (pH7.4 25 mL) was added to sodium cyanoborohydride (1.42 g) and to glyoxylic acid (0.9 g) and mixed so as to react at the temperature of 37 degrees centigrade for 24 hours. The reaction solution was then put into a dialysis cell of 10,000 molecular mass for a dialysis-with-water test to be conducted for one day and for a dialysis-with-PBS to be conducted for six days. CML-collagen (21 mg) was obtained by freeze-drying the dialysate.
The fibroblast (7×10^4 cells) was suspended in the D-MEM medium containing FCS (0.5%), penicillin (100 units/mL) and streptomycin ([…]) to be seeded within 96-well plates ([…]). After 24 hours of culture, the dissolved CML-collagen solution (2 mg·mL) and the sample solution ([…]) were added to the medium and cultured for 24 hours. Collagen, instead of CML-collagen, was added to Normal group.
The rate of cell survival was measured by MIT Assay. The result is shown in Chart 2. At the same time, a microscopic test was done, of which the result of formazan formation of fibroblast (×100) is shown in FIG. 2. Apoptosis was identified by measuring active caspase-3/7 by the fluorescence method, of which the result is shown in Chart 3, below. Each value of Charts 2 and 3 is indicated by the average value with standard error of the six examples. Asterisks (*, **) mean a significant difference (i.e. *: p<0.05; **: p<0.01) between the unprocessed samples and Dunnett's multiple comparison test, and f represents p<0.05 by Fisher's PLSD Test.
Here, in Test 2-2, respecting the cherry-blossom extract (Example 1), and the cherry-leaf extract (Example 2) and the seven substances contained in the cherry-blossom extract (Example 1): 1-O-(E)-Caffeoyl-β-D-glucopyranoside, 1-O-(E)-Coumaroyl-β-D-Glucopyranosideand, 1-O-(E)-Cinnamoyl-β-D-glucopyranoside, Kaempferol 3-O-3-D-glucopyranoside, Quercetin 3-O-β-D-glucopyranoside, Kaempferol 3-O-(6″-malony)-β-D-glucopyranoside and Quercetin 3-O-(6″-malony)-β-D-glucopyranoside (Examples 3 to 9), the activity against fibroblast apoptosis, caused by CML-collagen, was identified in the same way as in Test 2-1.
Also, in Test 2-2, PDL22-32 cells were used as the normal diploid fibroblast. As a target for comparison, aminoguanidine hydrochloride which is a medicine for the glycation inhibitor was examined in the same way. Each value of Chart 4 indicates an average value with standard error of the five examples. Asterisks (*, **) mean a significant difference (i.e. *: p<0.05; **: p<0.01) between processed samples and unprocessed samples with CML-collagen, determined by Dunnett's Multiple Comparison Test.

human diploid fibroblast = test: Test 4: AGE production within the fibroblast processed with glyoxal (Western Blotting); type: cell-based; conditions: 1 and 10 mg/mL, 5 days
Protocol: Test 4 examined the activity of the cherry blossom-extract (Example 1) and of the 1-O-(E)-Caffeoyl-β-D-glucopyranoside (Example 3) against the production of AGE (carbon methyl lysine protein) within the fibroblast (human diploid fibroblast) which was processed with glyoxal.
Human diploid fibroblast (passage number 30) was suspended in a D-MEM complete culture media, and 20 mL each was seeded within a cell culture dish of 14 cm in diameter. After 48 hours of culture, samples of various concentrations and of […] of glyoxal were added to 80%-confluent cells and cultured for 5 days. After that, each sample was collected and crushed. Then, protein […] was examined by the Western Blotting method using an anti-AGE antibody to detect AGE. […] In FIG. 6, CaGlu means 1-O-(E)-Caffeoyl-β-D-glucopyranoside (Example 3).

NB1 RGB fibroblast = test: Test 3: collagen grating formation of fibroblast glycosylated by glyoxal; type: cell-based, human
Protocol: When fibroblast is cultured in the presence of collagen solution, collagen grating formation can be identified. In a similar test, when adding fibroblast that has been glycosylated by the intermediate product of glycation (glyoxal), it is known that the collagen grating formation is inhibited.
The infant-derived NB1 RGB (passage number 22) was suspended in the D-MEM complete media (1.86×10^4 cells/mL). 15 mL each of it was seeded within each cell-culture dish of 14 cm in diameter. After 24 hours, each sample and glyoxal were added until the molecular mass of each dish became […] and incubate the dishes for five days.
Bovine skin-derived collagen (25 mg) was dissolved in 0.1% acetic acid (8.3 mL). Then, a 10-times concentration of Hanks solution ([…]) was added. Then, 0.1% acetic acid (3.5 mL) was added. 1M NaOH was added to neutralize the solution, which was sterilized by filteration to obtain the collagen solution.
The mixed solution of collected fibroblast (5.4×10^4 cell) was suspended in FCS ([…]), and collagen ([…]) was seeded within a 24-well cell-culture plate and allowed to culture for 24 hours and 48 hours. Each culture was observed through a microscope and by the naked eye. For the purpose of comparison, aminoguanidin hydrochloride which is an anti-glycation agent was also examined in the same way.

| SMILES | IC50 of AGE production inhibition (AGE production) | Inhibition Ratio (%) of AGE production (AGE production; 1 μg/mL) | Inhibition Ratio (%) of AGE production (AGE production; 3 μg/mL) | Inhibition Ratio (%) of AGE production (AGE production; 10 μg/mL) | Inhibition Ratio (%) of AGE production (AGE production; 30 μg/mL) | Inhibition Ratio (%) of AGE production (AGE production; 100 μg/mL) | Inhibition Ratio (%) of AGE production (AGE production; 300 μg/mL) | Inhibition Ratio (%) of AGE production (AGE production; 300 μg/mL, listed as Example 3) | Inhibition Ratio (%) of fibroblast apoptosis (Caspase Assay) ([1]; 1 μg/mL) | Inhibition Ratio (%) of fibroblast apoptosis (Caspase Assay) ([1]; 3 μg/mL) | Inhibition Ratio (%) of fibroblast apoptosis (Caspase Assay) ([1]; 10 μg/mL) | production of AGE within the fibroblast (anti-AGE antibody, FIG. 6) (human diploid fibroblast) | fibroblast shape, microscopic image after 24 hours of culture (FIG. 4) (NB1 RGB fibroblast) | amount of collagen grating formation (naked eye, FIG. 3), compared to the control group (NB1 RGB fibroblast; 100 mg/mL, with glyoxal) | Inhibition Ratio (%) of fibroblast apoptosis (Caspase Assay) ([1]; 100 μg/mL) | inhibitory activity against apoptosis caused by CML-collagen, result in words [1] | inhibitory activity against apoptosis caused by CML-collagen, result in words ([1]; listed as Example 6) | AGE inhibitory activity in words, related compound with less hydroxyl compared with Example 3 (AGE production) |
| --- | --- | --- | --- | --- | --- | --- | --- | --- | --- | --- | --- | --- | --- | --- | --- | --- | --- | --- |
| O=C(/C=C/c1ccc(O)c(O)c1)O[C@@H]1OC(CO)[C@@H](O)C(O)C1O (stereo partly drawn) [1-O-(E)-Caffeoyl-β-D-glucopyranoside] | >300 µg/mL | −3.3 ± 0.1% | 0.9 ± 0.1% | 10.7 ± 0.1** % | 19.5 ± 0.3** % | 25.0 ± 0.3** % | 30.0 ± 0.4** % | 30% | 26.2 ± 0.5* % | 37.6 ± 1.2% | 72.2 ± 2.7* % | inhibited the production of AGE | – | – | – | – | – | – |
| Cl.N=C(N)NN [Aminoguanidine Hydrochloride, aminoguanidine hydrochloride, reference compound] | 138 µg/mL | – | – | 1.4 ± 0.1% | 18.1 ± 1.1% | 42.6 ± 1.7** % | 67.7 ± 1.6** % | – | – | – | – | – | spherically shaped | showed no increase in the amount of grating formation | 104.8 ± 34* % | – | – | – |
| O=C(/C=C/c1ccccc1)O[C@@H]1OC(CO)[C@@H](O)C(O)C1O (stereo partly drawn) [1-O-(E)-Cinnamoyl-β-D-glucopyranoside] | >300 µg/mL | −8.4 ± 0.1% | −10.4 ± 0.1% | −10.9 ± 0.4* % | −7.8 ± 0.1% | 5.7 ± 0.1% | 23.3 ± 0.4** % | – | −11.8 ± 0.3% | 19.7 ± 0.9% | 48.6 ± 2.9% | – | – | – | – | – | – | reduced |
| O=C(/C=C/c1ccc(O)cc1)O[C@@H]1OC(CO)[C@@H](O)C(O)C1O (stereo partly drawn) [1-O-(E)-Coumaroyl-β-D-glucopyranoside] | >300 µg/mL | −3.2 ± 0.1% | −8.2 ± 0.1** % | −8.6 ± 0.1** % | −8.9 ± 0.1** % | −3.7 ± 0.1** % | 11.6 ± 0.1** % | – | 17.2 ± 0.5% | 7.1 ± 0.2% | 51.1 ± 1.9% | – | – | – | – | – | – | reduced |

More lines, main results first:

| IC50 of AGE production inhibition (AGE production) | SMILES | Inhibition Ratio (%) of AGE production (AGE production; 1 μg/mL) | Inhibition Ratio (%) of AGE production (AGE production; 3 μg/mL) | Inhibition Ratio (%) of AGE production (AGE production; 10 μg/mL) | Inhibition Ratio (%) of AGE production (AGE production; 30 μg/mL) | Inhibition Ratio (%) of AGE production (AGE production; 100 μg/mL) | Inhibition Ratio (%) of AGE production (AGE production; 300 μg/mL) | Inhibition Ratio (%) of AGE production (AGE production; 300 μg/mL, listed as Example 3) | Inhibition Ratio (%) of fibroblast apoptosis (Caspase Assay) ([1]; 1 μg/mL) | Inhibition Ratio (%) of fibroblast apoptosis (Caspase Assay) ([1]; 3 μg/mL) | Inhibition Ratio (%) of fibroblast apoptosis (Caspase Assay) ([1]; 10 μg/mL) | production of AGE within the fibroblast (anti-AGE antibody, FIG. 6) (human diploid fibroblast) | fibroblast shape, microscopic image after 24 hours of culture (FIG. 4) (NB1 RGB fibroblast) | amount of collagen grating formation (naked eye, FIG. 3), compared to the control group (NB1 RGB fibroblast; 100 mg/mL, with glyoxal) | Inhibition Ratio (%) of fibroblast apoptosis (Caspase Assay) ([1]; 100 μg/mL) | inhibitory activity against apoptosis caused by CML-collagen, result in words [1] | inhibitory activity against apoptosis caused by CML-collagen, result in words ([1]; listed as Example 6) | AGE inhibitory activity in words, related compound with less hydroxyl compared with Example 3 (AGE production) |
| --- | --- | --- | --- | --- | --- | --- | --- | --- | --- | --- | --- | --- | --- | --- | --- | --- | --- | --- |
| 102 µg/mL | O=c1c(O[C@@H]2O[C@H](CO)[C@@H](O)[C@H](O)[C@H]2O)c(-c2ccc(O)cc2)oc2cc(O)cc(O)c12 [Kaempferol 3-O-β-D-glucopyranoside] | −8.4 ± 0.1** % | −9.1 ± 0.2** % | −2.0 ± 0.1% | 19.4 ± 0.1** % | 45.0 ± 0.5** % | 80.3 ± 0.7** % | – | −0.7 ± 0.1% | 27.9 ± 1.1% | 100.7 ± 4.2% | – | – | – | – | especially strong inhibitory activity | strong inhibitory activity | – |
| 30 µg/mL | O=c1c(O[C@@H]2O[C@H](CO)[C@@H](O)[C@H](O)[C@H]2O)c(-c2ccc(O)c(O)c2)oc2cc(O)cc(O)c12 [Quercetin 3-O-β-D-glucopyranoside] | 8.5 ± 0.1** % | 6.5 ± 0.1* % | 27.6 ± 0.5** % | 49.8 ± 0.7** % | 74.2 ± 1.1** % | 100.8 ± 0.6** % | – | 44.2 ± 1.5* % | 39.0 ± 1.1* % | 121.5 ± 5.4** % | – | – | – | – | strongest inhibitory activity | – | – |
| 78 µg/mL | O=C(O)CC(=O)OCC1O[C@@H](Oc2c(-c3ccc(O)cc3)oc3cc(O)cc(O)c3c2=O)C(O)C(O)[C@@H]1O (stereo partly drawn) [Kaempferol 3-O-(6″-malony)-β-D-glucopyranoside] | −5.0 ± 0.1% | −8.5 ± 0.1% | 0.2 ± 0.1% | 20.5 ± 0.3** % | 50.8 ± 0.4** % | 91.7 ± 1.7** % | – | −18.9 ± 0.6% | −17.3 ± 0.6% | 10.5 ± 0.5% | – | – | – | – | relatively weak activity | – | – |
| 36 µg/mL | O=C(O)CC(=O)OCC1O[C@@H](Oc2c(-c3ccc(O)c(O)c3)oc3cc(O)cc(O)c3c2=O)C(O)C(O)[C@@H]1O (stereo partly drawn) [Quercetin 3-O-(6″-malony)-β-D-glucopyranoside] | −10.4 ± 0.9% | 1.9 ± 0.1% | 20.4 ± 0.3** % | 43.7 ± 0.7** % | 74.6 ± 0.7** % | 103.9 ± 3.6** % | – | 21.8 ± 0.7% | 36.6 ± 1.4% | 98.4 ± 4.4* % | – | – | – | – | strong inhibitory activity | – | – |
